Here are results for 5 molecules from patent US20260327250A1, “3-ETHYLAMINO-INDOLE DIMERS AS SEROTONERGIC AGENTS USEFUL FOR THE TREATMENT OF DISORDERS RELATED THERETO” (MINDSET PHARMA INC., priority 2022, published 2026).

What is called EC50 is the concentration giving half of the maximal effect. Broadly, the share remaining is what is left of the initial amount, in per cent. A higher share remaining goes with greater stability. One may read the half-life as the time needed for the level to fall by half in the phase considered. Read a high half-life as slow decline. Usually Papp A→B stands for how fast a substance crosses the layer from the apical side. The low end stands for slow passage, the high end for fast passage. As usually defined, the Papp B→A is the apparent permeability from the basolateral to the apical side of a cell layer. For orientation: efflux ratio means the permeability from basolateral to apical divided by that in the opposite direction, in the common usage.

The target in series [1] is T1, human 5-hydroxytryptamine receptor 2A (5-HT2A) (Homo sapiens, UniProt P28223).
T1 construct: expressed in transfected cells; host or cells: HTR2A&Ga15-HEK293
T1 sequence (P28223 whole entry): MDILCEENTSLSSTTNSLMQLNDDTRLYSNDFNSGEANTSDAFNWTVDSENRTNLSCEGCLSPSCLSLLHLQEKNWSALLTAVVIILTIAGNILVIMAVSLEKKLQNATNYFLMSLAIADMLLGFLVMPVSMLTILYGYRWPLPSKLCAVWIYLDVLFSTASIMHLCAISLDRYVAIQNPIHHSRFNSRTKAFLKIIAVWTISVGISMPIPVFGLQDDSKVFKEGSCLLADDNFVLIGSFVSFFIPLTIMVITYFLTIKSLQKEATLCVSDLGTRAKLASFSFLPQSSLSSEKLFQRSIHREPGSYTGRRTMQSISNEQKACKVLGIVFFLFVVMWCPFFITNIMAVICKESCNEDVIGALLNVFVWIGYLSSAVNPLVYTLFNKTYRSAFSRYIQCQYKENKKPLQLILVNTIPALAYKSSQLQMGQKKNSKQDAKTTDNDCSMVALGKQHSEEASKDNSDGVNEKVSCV
Put plainly: Human 5-HT2A functional FLIPR assay (agonist mode). In kind it is cell-based. Particulars: for RFU@10 μM: footnote: Curve fitting with activation (%) @ 10 mM with RFU. Here is the method: To assess the potential excitatory effects of compounds targeting on human 5-hydroxytryptamine receptor 2A (5-HT2A) under agonist mode
HTR2A&Ga15-HEK293 cells were cultured in DMEM medium containing 10% dialyzed FBS and 1× penicillin-streptomycin, 100 μg/mL Hygromycin B and 300 μg/mL G418. The cells were passaged about three times a week, maintained between ~30% to ~90% confluence.
• 1. The cell culture medium (DMEM medium containing 10% dialyzed FBS and 1× penicillin-streptomycin, 100 μg/mL Hygromycin B and 300 μg/mL G418), TrypLE™ Express and DPBS was warmed to R. T. in advance. • 2. For induction, 1 μg/ml tetracycline (final concentration) was added to cell culture medium and incubated for 48 hours prior to seeding cells into plate at 37° C., 5% (v/v) CO2. The cell culture medium was removed from flask. Washed cells with DPBS. • 3. 2 mL TrypLE™ Express was added to the flask, mixed well by gentle shaking and cells incubated at 37° C. for a few minutes. • 4. The cells morphological change was checked under microscope, and the digestion stopped by adding 4 mL cell culture medium to the flask when most of cells turned to round. • 5. The cell suspension was transferred into a 15 mL centrifuge tube, and then centrifuged at 1,200 rpm for 5 minutes. • 6. The supernatant was removed. The cell pellet was resuspended with 2 mL cell culture medium. • 7. The cell density was counted using cell counter. Only cells with >85% viability were used for the assay. • 8. Cells were diluted to 6.67×10^5/mL with cell culture medium. • 9. 30 μL/well cell suspensions was added into a 384-well cell plate (The cell density was 20,000 cells/well). • 10. The cell plate was incubated overnight at 37° C., 5% (v/v) CO2. 2.3 Cell handling • 1. On the day of experiments, culture medium was removed from the cell plate. • 12. 10 μL of assay buffer (20 mM HEPES, in 1× HBSS, pH 7.4) was added to each well of the cell plate. • 3. 2×dye solution was prepared following the manual of the FLIPR® Calcium 6 Assay Kit: • i. The dye was diluted with assay buffer. • ii. Probenecid was added to the final concentration of 5 mM. • iii. Vortexed vigorously for 1-2 minutes. • 4. 10 μL of 2× dye solution was added to each well of the cell plate • 5. The cell plate was placed on plate shaker, and was shaken at 600 rpm for 2 minutes. • 6. The plate was incubated at 37° C. for 2 hours followed by an additional 15-minute incubation at 25° C. 2.4 Prepare 3×compound • 1, Serotonin HCl was prepared to the concentration of 10 mM with DMSO. • 2. The test compounds were prepared to the concentration of 10 mM with DMSO. • 3. The compounds were added to a 384-well compound source plate. • 4. 3-folds serial dilutions were performed with DMSO. • 5. 90 nL/well of serial diluted compounds were transferred from source plate to a 384-well compound plate by using an Echo. • 6. 30 μL/well of assay buffer (20 mM HEPES in 1× HBSS, pH 7.4) were added to the compound plate. • 7. Mixed on the plate-on-plate shaker for 2 minutes.
• 1, After the cells were incubated with dye solution, the cell plate, compound plate containing 3×compounds and FLIPR tips were placed into FLIPR. • 2, 10 μL of 3×compounds were transferred from the compound plate to the cell plate by FLIPR. • 3, The plate was read for 160 sec with 1 sec interval to obtain the data of agonist mode.
• 1, The normalized fluorescence reading (RFU) was calculated as shown below, wherein Fmax and Fmin stand for maximum and minimum of calcium signal during defined time window:
[formula] • 2. EC50 was calculated by fitting RFU against log of compound concentrations with Hill equation using XLfit.

The nature of series [2]: Rat plasma stability. To be noted: for Remaining Percentage: rat plasma, 0 min.
Description: (§1) The stock solution of test compound was prepared in DMSO and diluted at the final concentration of 200 μM.
(§2) • a. 2.5 μL of 200 μM or 1 mM test compound or control compound solution was spiked to 497.5 μL plasma to reach a final concentration of 1 μM or 5 μM. The final concentration of organic solvents was 0.5%. The assay was performed in duplicated. • b. The reaction samples were incubated at 37° C. at approximately 60 rpm in a water bath. • c. Aliquots of 50 μL were taken from the reaction samples at 0, 30, 60, 120, 180 and 240 minutes. The reaction was stopped by the addition of 7 volumes of cold acetonitrile containing internal standards (IS: 100 nM alprazolam, 200 nM imipramine, 200 nM labetalol and 2 μM ketoprofen). • d. All samples were vortexed for 2 minutes, followed by centrifugation at 3,220 g for 30 minutes to precipitate proteins. 100 μL of the supernatant was transferred to a new plate. The supernatant was diluted with ultrapure water according to the LC-MS signal response and peak shape.
(§3) Samples were Analyzed by LC-MS/MS. • LC system: Shimadzu • MS analysis: Triple Quad™ 6500+ from AB Inc (Canada) with an ESI interface • Column temperature: 40° C. • Column: Xselect® Hss T3 2.5μ (2.1×30 mm) coupled with preguard column • Mobile phase: 0.1% formic acid in water (A) and 0.1% formic acid in acetonitrile (B)
(§4) All calculations were carried out using Microsoft Excel. Remaining percentages of parent compounds at each time point were estimated by determining the peak area ratios from extracted ion chromatograms.
The nature of series [3]: Dog plasma stability. To be noted: for Remaining Percentage: dog plasma, 0 min.
Description: as §1, §2, §3, §4
Series [4] in a line: in vitro. Particulars: human, plasma.
Description: as §1, §2, §3, §4
Series [5] is described as follows: Human, rat and mouse liver microsomes stability (overall conclusion). In kind it is in vitro ADME. Particulars: 60-minute time period. As for the experimental part:
This study was performed in duplicate.
All calculations were carried out using Microsoft Excel.
All calculations were carried out using Microsoft Excel. Peak areas were determined from extracted ion chromatograms.
(In general: Liver microsomes are vesicles of endoplasmic reticulum, rich in cytochrome P450 enzymes.)

The nature of series [6]: in vitro. To be noted: dog, plasma.
Description: as §1, §2, §3, §4
Series [7] can be described thus: in vitro. Particulars: human.
Description: The Caco-2 cell culture medium was prepared consisting of Dulbecco's Modified Eagle's Medium (DMEM) with high glucose and L-glutamine supplemented with 10% FBS, 1× penicillin-streptomycin mixture and 1× non-essential amino acids (NEAA). • 2. The 50 μL of culture medium was added to each well of the Transwell insert. Transwell insert was removed from reservoir and 25 mL of culture medium was added. • 3. Incubated at 37° C., 5% CO2 for 1 hour. Plates were ready for cell seeding. • 4. The cells were cultivated in T-75 flasks in a cell culture incubator set at 37° C., 5% CO2, 95% relative humidity. The cells were allowed to reach 80-90% confluence before detaching and splitting. • 5. The cultivated cells were rinsed in T-75 flasks with 5 mL PBS. Aspirated off, 1.5 mL trypsin/EDTA was added, and incubated at 37° C. for approximately 5 to 10 minutes or until the cells detach and float. Trypsin/EDTA was inactivated by adding excess serum containing medium. • 6. The cell suspension was moved to a conical tube and cells were pelleted by centrifugation at 120×g for 10 minutes. • 7. The cells were resuspended in seeding medium at a density of 6.86×10^5 cells/mL. This cell concentration can be used to seed 2.40×10^5 cells/cm^2. […] Seeding and Feeding of Caco-2 Cells in Transwell Plates • 1. 50 μL of above cell suspension was added to each well of a previously prepared Transwell plate. • 2. The plate was incubated for 14-18 days. The medium was replaced every other day, beginning no sooner than 48 hours after initial plating. • 3. The procedure for medium changes was as follows. The plate was removed from incubator and placed in hood. The medium was aspirated from reservoir and each Transwell insert. 75 μL of culture medium was added to each well of Transwell inserts and 25 mL of culture medium was added to reservoir tray. The plate was returned to incubator.
When the 14-day Caco-2 cultured cells have reached confluence and are differentiated, they were ready to be used for transport studies. • 2. The medium was removed from reservoir and Transwell inserts. • 3. 75 μL of pre-warmed culture medium was added to each transwell insert and 25 mL of reservoir tray. • 4. The electrical resistance across the monolayer was measured using automated tissue resistance measuring system (World Precision Instruments, Sarasota, FL). • 5. The electrical resistance was recorded for each well. • 6. Once all wells were measured, the plate was returned to incubator. • 7. TEER of each well was calculated by the equation below. The TEER value of each well should be greater than 230 ohms-cm^2. TEER measurement (ohms)×Area of membrane (cm^2)=TEER value (ohm-cm^2)
The Caco-2 plate was removed from the incubator. Next, the monolayer was washed, and the volume exchanged two times using pre-warmed HBSS (10 mM HEPES, pH 7.4). Then the plate was incubated for 30 minutes at 37° C. • 1 mM stock solutions of control compounds and test compound(s) were prepared in DMSO and diluted with HBSS (10 mM HEPES, pH 7.4) to reach the final concentration of 5 μM. The final concentration of DMSO in the incubation system was 0.5%. Digoxin, prazosin and propranolol were used as control compounds in this assay. • 3. HBSS (10 mM HEPES, pH 7.4) was removed after 30 minutes pre-incubation. • 4. The rate of drug transport was incubated in the apical to basolateral direction. 75 μL of the control compounds and test compound was added to the Transwell insert (apical compartment). The wells were filled in the receiver plate (basolateral compartment) with 235 μL of HBSS (10 mM HEPES, pH 7.4). • 5. The rate of drug transport was determined in the basolateral to apical direction. 235 μL of the control compounds and test compound(s) was added to the receiver plate wells (basolateral compartment). The Transwell insert (apical compartment) was filled with 75 μL of HBSS (10 mM HEPES, pH 7.4). • 6. […] Incubated at 37° C. for 2 hours. • 8.
Series [8] can be described thus: Human plasma stability. Particulars: for Remaining Percentage: human plasma, 0 min.
Description: as §1, §2, §3, §4
Series [9] in a line: Mouse plasma stability. Particulars: for Remaining Percentage: mouse plasma, 0 min.
Description: as §1, §2, §3, §4
For series [10] the following is noted: patients; psilocybin-assisted psychotherapy or supportive setting; cited from earlier work.
Series [11] deals with 5-HT2A and 5-HT2C receptors. To be noted: compared with LSD; cited from earlier work.
For series [12], the system named is 5-HT1A receptors. To be noted: cited from earlier work.
Series [13] deals with 5-HT2A. To be noted: rats, 5-HT2A or 5-HT1A antagonists; cited from earlier work.
In series [14] the test system is low attentive and low motivated rats. To be noted: doses below the threshold for wet dog shake response; cited from earlier work.
Series [15] deals with brain's default mode network. To be noted: humans, intravenous; cited from earlier work.
Where [16] appears, read: FLIPR, agonist mode, ND = Not detected, read-out: h5-HT2A, EC50.

Entries after “also recorded” stand apart in the source; their conditions may differ. Counter-ions that a name gives are not always drawn. Like-named read-outs stand apart in the source and are kept apart here.

Consider `CC(C)N(CCc1c[nH]c2cccc(O)c12)C(C)C` [Compound 7], for which the “RFU@10 μM” value in [1] is given as 6358 RFU. The EC50 in series [1] (setting [16]) turned out to be 81.4 nM.

Consider `CN(C)CCc1c[nH]c2cccc(OC(=O)CCCC(=O)Oc3cccc4[nH]cc(CCN(C)C)c34)c12` [Compound I-24, Bis(3-(2-(dimethylamino)ethyl)-1H-indol-4-yl) glutarate], for which the “Remaining Percentage” value in [2] is given as 100.00%. Moreover, in series [1], the “RFU@10 μM” value came to 3061 RFU. Further, the EC50 in series [1] (setting [16]) worked out at 24.9 nM. Moreover, the “Remaining Percentage” value in [3] stood at 100.00%. In series [4], this molecule showed a share remaining at 0.5 h of 0%, an amount remaining at 1 h of 0%, a share remaining at 2 h of 0% and a fraction remaining at 3 h of 0%. The fraction remaining at 4 h in series [4] was determined as 0%. Further, in series [5], the “metabolic stability (conclusion)” value is reported as “rapidly metabolized”. Besides, in series [6], the half-life amounted to 0.316 h, the fraction remaining at 0.5 h is 32.9%, the share remaining at 1 h amounted to 11.2% and the amount remaining at 2 h came out at 0%. Further, in series [6], the share remaining at 3 h was determined as 0% and the fraction remaining at 4 h is 0%. Besides, in [7] (Caco-2, pH 7.4), the Papp A→B at 2 h, 5 µM turned out to be 0.27 ×10⁻⁶ cm/s; the Papp B→A at 2 h, 5 µM came out at 2.47 ×10⁻⁶ cm/s; the efflux ratio at 2 h, 5 µM was found to be 9.16. For the same molecule, in [7] (Caco-2, pH 7.4, Percentage recovery A→B, apical to basolateral), the recovery at 2 h, 5 µM is 112%. Further, in series [7] (Caco-2, pH 7.4, Percentage recovery B→A, basolateral to apical), the recovery at 2 h, 5 µM was found to be 105%. In addition, the “Remaining Percentage” value in [8] was determined as 100.00%. Also, in [9], the “Remaining Percentage” value is 100.00%.

As to `CC(C)N(CCc1c[nH]c2cccc(OC(=O)CCCC(=O)Oc3cccc4[nH]cc(CCN(C(C)C)C(C)C)c34)c12)C(C)C` [Compound I-37, Bis(3-(2-(diisopropylamino)ethyl)-1H-indol-4-yl) glutarate dihydrochloride], the “Remaining Percentage” value in [2] worked out at 100.00%. In series [2] (rat, plasma), the amount remaining at 0.5 h was found to be 0%, the amount remaining at 1 h came to 0%, the fraction remaining at 2 h stood at 0% and the fraction remaining at 3 h turned out to be 0%. In series [2] (rat, plasma), this molecule registered a share remaining at 4 h of 0%. In series [1], the EC50 was found to be 158 nM and the “RFU@10 μM” value is 6768 RFU. The “Remaining Percentage” value in [3] was 100.00%. In series [3] (dog, plasma), this molecule yielded a half-life of 1.91 h, a fraction remaining at 0.5 h of 82.6%, a share remaining at 1 h of 70.5% and a fraction remaining at 2 h of 50.5%. For the same molecule, in series [3] (dog, plasma), the share remaining at 3 h is 31.6% and the share remaining at 4 h was found to be 24.2%. The “metabolic stability (conclusion)” value in [5] is “rapidly metabolized”. Besides, in [8], the “Remaining Percentage” value turned out to be 100.00%. Besides, in series [8] (human, plasma), the fraction remaining at 0.5 h came to 0%, the amount remaining at 1 h was 0%, the share remaining at 2 h is 0% and the fraction remaining at 3 h was found to be 0%. Further, the fraction remaining at 4 h in series [8] (human, plasma) stood at 0%. The “Remaining Percentage” value in [9] was 100.00%. For the same molecule, in series [9] (mouse, plasma), the share remaining at 0.5 h came to 0%, the share remaining at 1 h came to 0%, the fraction remaining at 2 h came to 0% and the fraction remaining at 3 h was determined as 0%. The molecule further gave a share remaining at 4 h in [9] (mouse, plasma) of 0%.

As for `CN(C)CCc1c[nH]c2cccc(O)c12` [Psilocin, 4-hydroxy-N,N-dimethyltryptamine, reference compound], the “RFU@10 μM” value in series [1] was found to be 308 RFU. In addition, in [7] (Caco-2, pH 7.4), the Papp A→B at 2 h, 5 µM was determined as 24.6 ×10⁻⁶ cm/s and the Papp B→A at 2 h, 5 µM was 18.7 ×10⁻⁶ cm/s.

For `CN(C)CCc1c[nH]c2cccc(OP(=O)(O)O)c12` [Psilocybin], the “RFU@10 μM” value in series [1] turned out to be 257 RFU. Besides, in series [10], the “relief of depression and anxiety” value was “unprecedented positive relief of anxiety and depression; also recorded: significant and sustained anti-depressant and anxiolytic effects”. Also, the “K(i)” value in series [11] is “lower K(i) for both 5-HT2A and 5-HT2C receptors than LSD”. Further, the “activation of 5-HT1A receptors” value in series [12] is recorded as “activates 5-HT1A receptors”. Also, the drug discrimination in [13] is 5-HT2A antagonists, but not 5-HT1A antagonists, prevented rats from recognizing psilocybin. In [14], the task performance entry was “improved performance on the 5-choice serial reaction time and progressive ratio tasks”. Further, the oscillatory power entry in [15] is “decreases in oscillatory power in areas of the brain's default mode network”.
